These results are taken from article PMC4289617 (Journal of medicinal chemistry, 2010).

The target of the experiment is WDR5 (Homo sapiens, UniProt P61964). As to the kind of experiment: FP-based competitive binding assay. The note with it: for binding to WDR5: up to the concentrations tested; for times less potent than Ac-3mer: compared to Ac-3mer (Ac-ARA-NH2); for times increase in binding affinity upon N-terminal acetylation: acetylated vs free amino group peptide.

Peptide text beside a SMILES is read from it.

Consider `C[C@H](N)C(=O)N[C@@H](CCCNC(=N)N)C(=O)N[C@@H](C)C(N)=O` [H2N-3mer, H2N-ARA-NH2] (H-Ala-Arg-Ala-NH2), for which the “binding to WDR5” value is on record as “does not bind to WDR5”.

Take `CC(=O)N[C@@H](C)C(=O)N[C@@H](CCCNC(=N)N)C(=O)N[C@@H](C)C(=O)N[C@@H](CCC(=O)O)C(=O)N[C@H](C(=O)N[C@@H](Cc1c[nH]cn1)C(=O)N[C@@H](CC(C)C)C(=O)N[C@@H](CCCNC(=N)N)C(=O)N[C@@H](CCCCN)C(=O)N[C@@H](CO)C(N)=O)C(C)C` [Ac-10mer]: the “times more potent than the WIN peptide” value (Ki ratio vs WIN peptide) was 50.

Consider `CC(=O)N[C@@H](C)C(=O)N[C@@H](CCCNC(=N)N)C(=O)N[C@@H](C)C(=O)N(C)C` [Δ2b, Ac-ARA-CONMe2] (Ac-Ala-Arg-Ala-NMe2), for which the “times less potent than Ac-3mer” value is given as 50.

As to `CC(=O)N[C@@H](C)C(=O)N[C@@H](CCCNC(=N)N)C(=O)N[C@H](C(N)=O)[C@@H](C)O` [Ac-H3-3mer, Ac-ART-NH2] (Ac-Ala-Arg-Thr-NH2), the “times increase in binding affinity upon N-terminal acetylation” value (shortened to “times increase”) is recorded as 1500. Moreover, the “times more potent than Ac-ARA-NH2” value (compared to Ac-ARA-NH2) was determined as 6.

Ac-ARTKQTA-NH2 [Ac-H3-7mer, Ac-ARTKQTA]: the “times increase” value is > 10000.

On to `CC(=O)N[C@@H](C)C(=O)N[C@@H](CCCNC(=N)N)C(=O)N[C@H](C(=O)N[C@@H](CCCCN)C(=O)N[C@@H](CCC(N)=O)C(=O)N[C@H](C(=O)N[C@@H](C)C(=O)N[C@@H](CCCNC(=N)N)C(=O)N[C@@H](CCCCN)C(=O)N[C@@H](CO)C(N)=O)[C@@H](C)O)[C@@H](C)O` [Ac-H3-10mer], for which the “times increase” value is > 10000.

On to `CC(=O)N[C@@H](C)C(=O)N[C@@H](CCCNC(=N)N)C(=O)N(C)[C@@H](C)C(N)=O` [Δ1, Ac-AR-(N-Me)A-NH2], for which the “binding to WDR5” value is “complete loss of its binding to WDR5”.

Consider “Ac-ARAEVHL-NH2 (N-terminus and C-terminus assumed) [Ac-7mer]”, for which, for the setting “compared to Ac-10mer”, the “fold decrease in binding affinity vs Ac-10mer” value was determined as 10.

Take `COC(=O)[C@H](C)NC(=O)[C@H](CCCNC(=N)N)NC(=O)[C@H](C)NC(C)=O` [Δ2c, Ac-ARA-COOCH3] (Ac-Ala-Arg-Ala-OMe): the “times less potent than Ac-3mer” value was 10.
